{
  "source": "patent US20200131473A1",
  "about": "“METHOD OF GENERATING 2 CELL-LIKE STEM CELLS” (IFOM FONDAZIONE ISTITUTO FIRC DI ONCOLOGIA MOLECOLARE, priority 2017, published 2020)",
  "key": {"[1]": {"system": "morula-stage embryos", "assay": "Mouse chimaera assay", "type": "in vivo", "conditions": "APH-treated mCherry ESCs injected into morula, 24 hrs post injection; 7 out of 35", "method": "Briefly, morula stage embryos were bought from Charles River laboratories. They were thawed few hours prior to injection and about five to eight ESC were injected into the perivitelline space of high quality morula-stage embryos using laser-assisted technique and glass micro-capillary tubes. Finally, embryos were cultured for 24 hours at 37 C, 5% CO2 to allow the blastocysts development prior to the microscopic analysis.\nFor ETAA-1 inducible cells, 8-cell morulae were obtained from superovulated C57BL/6 prepubescent females from Janvier Labs. Ten ESCs were injected into each morula after piercing their zona pellucida with beveled microinjection needle. Embryos were kept in M2 medium during the injection and afterwards in KSOM medium at 37° C. under 5% CO2. Morulae were either cultured for 48 hrs to study ESC contribution at late blastocyst stage (E4.5), or transferred to pseudopregnant females and later dissected at E7.5. Chimerism and ESC contribution to the various embryonic layers were assessed by emission of mCherry fluorescence signal.\nFor the APH-treated ESCs, frozen morula-stage embryos were purchased from Charles River and Janvier laboratories. Embryos were thawed 2 hrs prior to injection and 4 to 8 ESCs were transferred into the perivitelline space by laser-assisted microinjection method. […]"}, "[2]": {"system": "Nanog, Pou5f1 (Oct4), Sox2", "assay": "Immunostaining and qPCR for canonical pluripotency markers in ESCs", "type": "cell-based, mouse", "conditions": "upon APH treatment", "method": "RNA was extracted using RNeasy mini kit (QIAGEN), quantified by NanoDrop spectrophotometer and cDNA was prepared from 2 μg total DNA-depleted RNA using SuperScript™ III reverse transcriptase kit (Invitrogen cat #18080-093) following manufacturer's instructions. qPCR assay performed based on standard protocol using […] SsoFast™ EvaGreen® Supermix or later 1× LightCycler 480 SYBR Green I Master (Roche, 04707516001), 0.5 μM primer mix and 5 ng of cDNA. GAPDH was used as internal control to normalise the qPCR data following ΔΔCt method, 10 μM primer mix and a total amount of cDNA corresponding to 5 ng of starting RNA for each reaction. […] Then, cells were incubated with primary antibody at 4° C. overnight, followed by washes and incubation with secondary antibody for an hour at room temperature. Next samples were mounted and images were acquired with wide field florescent microscope. Antibodies used in this study were Anti Oct-3/4 (Santa Cruz sc-5279), Anti Nanog (Abcam ab80892) and Plet-1 antibody (Nordic MUbio MUB1512P) and), Anti-GFP (Abcam, ab5450). Acquired figures were analyzed with ImageJ software."}, "[3]": {"system": "pZscan4-Emerald ESCs", "assay": "Cell cycle analysis of ESCs", "type": "cell-based, mouse", "conditions": "APH 0.3 μM and 6 μM", "description": "(§1) ESCs were fixed and permeabilized using Cytoperm/Cytofix kit (BD Biosciences), and subsequently stained for one hour at room temperature with Alexa Fluor® 647 anti-H2AX-Phosphorylated (Ser139) antibody (Biolegend) or P-CHK1-PE conjugated antibody (cell signaling 12268). Cells were washed and acquired on a FACS Calibur instrument or Attune NxT (Thermo Fisher Scientific). For Emerald-GFP acquisition, cells were trypsinized, collected and subsequently acquired without fixation. Cell cycle profiles were acquired after incubation with DAPI (4′,6-diamidino-2-phenylindole) overnight. For Caspase3 FACS analysis after fixation and permeabilization, Cleaved Caspase3 antibody were used for one hr at RT followed by washes and one hr incubation in donkey anti rabbit secondary antibody. […]"}, "[4]": {"system": "ATR Seckel and WT ESCs", "assay": "In-vitro differentiation toward giant trophoblast-like cells", "type": "cell-based, mouse", "method": "RNA was extracted using RNeasy mini kit (QIAGEN), quantified by NanoDrop spectrophotometer and cDNA was prepared from 2 μg total DNA-depleted RNA using SuperScript™ III reverse transcriptase kit (Invitrogen cat #18080-093) following manufacturer's instructions. qPCR assay performed based on standard protocol using 10× SsoFast™ EvaGreen® Supermix or later 1× LightCycler 480 SYBR Green I Master (Roche, 04707516001), 0.5 μM primer mix and 5 ng of cDNA. GAPDH was used as internal control to normalise the qPCR data following ΔΔCt method, 10 μM primer mix and a total amount of cDNA corresponding to 5 ng of starting RNA for each reaction.\nThen, cells were incubated with primary antibody at 4° C. overnight, followed by washes and incubation with secondary antibody for an hour at room temperature. Next samples were mounted and images were acquired with wide field florescent microscope. Antibodies used in this study were Anti Oct-3/4 (Santa Cruz sc-5279), Anti Nanog (Abcam ab80892) and Plet-1 antibody (Nordic MUbio MUB1512P) and), Anti-GFP (Abcam, ab5450). Acquired figures were analyzed with ImageJ software. […]"}, "[5]": {"system": "pZscan4-Emerald ESCs", "assay": "FACS for Emerald-GFP and CASPASE-3 (apoptosis)", "type": "cell-based, mouse", "conditions": "mostly at high concentration", "description": "as §1"}, "[6]": {"system": "C57BL/6N morulae", "assay": "Viability of APH-treated embryos", "type": "cell-based, mouse", "conditions": "APH 1.5 μM in KSOM for 4 hrs"}},
  "data": [
    {"smiles": "C[C@@]1(CO)[C@H](O)CC[C@@]2(C)[C@H]1CC[C@H]1C[C@@H]3C[C@@]12CC[C@]3(O)CO", "note": "[APH, aphidicolin]", "values": [
      {"measurement": "chimeric embryos with contribution to the trophectoderm layer of the blastocysts", "setting": "[1]", "result": 20, "unit": "%"},
      {"measurement": "Nanog, Pou5f1 (Oct4) protein in Zscan4 positive cells (immunostaining)", "setting": "[2]", "result": "mild downregulation"},
      {"measurement": "expression of pluripotency related genes at the transcriptional level", "setting": "[2]; Sox2, Nanog, Pou5f1, Rex1", "result": "no significant alterations"},
      {"measurement": "G2/M population in culture", "setting": "[3]", "result": "neither at low (0.3 μM) nor at high (6 μM) concentrations could increase G2/M population"},
      {"measurement": "number of giant trophoblast-like cells", "setting": "[4]; APH treatment", "result": "more than three folds"},
      {"measurement": "giant trophoblast cell specific marker Prl2c2 (qPCR) in ATR activated condition", "setting": "[4]; wild type ESC treated with APH", "result": "highest expression"},
      {"measurement": "cell apoptosis (CASPASE-3)", "setting": "[5]", "result": "mild cell apoptosis"},
      {"measurement": "viability of the embryos", "setting": "[6]", "result": "no effect on the viability of the embryos"}
    ]}
  ]
}
